From PMC6593178 (Bioorganic & Medicinal Chemistry Letters, 2019)
“Also recorded” adds a separate entry of the source. Like-named read-outs stand apart in the source and are kept apart here.

Columns and labels:
[1] = molecular target: CMY-2; design: method as in PMID 25782055; conditions: read-out: Vaborbactam Ki; CMY-2, nitrocefin assay; cited from earlier work
[2] = molecular target: SHV-12; conditions: read-out: Vaborbactam Ki; SHV-12, nitrocefin assay; cited from earlier work
[3] = molecular target: T1, OXA-48 (Klebsiella pneumoniae, UniProt Q6XEC0); assay: β-lactamase inhibition, FC-5 fluorogenic cephalosporin assay; format: biochemical; conditions: Vaborbactam IC50, OXA-48, class D, 100 mM NaHCO3
T1 construct: made in house; host or cells: E. coli

[4] = molecular target: T2, CphA (Aeromonas hydrophila, UniProt P26918); assay: β-lactamase inhibition, meropenem hydrolysis UV assay; format: biochemical; conditions: subclass B2
T2 construct: made in house; host or cells: E. coli
Method: (§1) Recombinant MBLs and SBLs were produced in E. coli and purified following reported procedures^1-6 and were all >95% pure (as judged by SDS-PAGE and MS analyses). Note the TEM enzyme used in this study is named TEM-116^7, in previous studies this has been assigned incorrectly as TEM-1^3, 5, 8-14. […] Activity was assayed by monitoring the release of a fluorophore following the enzymatic breakdown of the cephalosporin FC-5^15, with the exception of the class B2 MBLs, where the hydrolysis of meropenem was used as a readout^16. FC-5 assays were conducted in clear bottomed 384 black well microplates (Greiner) and the initial rate of reaction was assessed by monitoring the fluorescence intensity (λex = 380 nm and λem = 460 nm) using a PHERAstar FS (BMG LabTech) plate reader^15. For the B2 MBLs, assays were carried out in 96 well UV star microplates (Greiner) and UV absorbance at λ = 300 nm monitored. Initial rates of reaction were determined and dose-response analyses conducted in GraphPad Prism^15.

[5] = molecular target: KPC-2 carbapenemase; design: method as in PMID 25782055; conditions: read-out: Vaborbactam Ki; KPC-2, nitrocefin assay; cited from earlier work
[6] = molecular target: cephalosporinase P99; design: method as in PMID 25782055; conditions: read-out: Vaborbactam Ki; P99, nitrocefin assay; cited from earlier work
[7] = molecular target: CTX-M15; design: method as in PMID 25782055; conditions: read-out: Vaborbactam Ki; CTX-M15, nitrocefin assay; cited from earlier work
[8] = molecular target: T3, VIM-1 (Pseudomonas aeruginosa, UniProt A0A0F7KYQ8); assay: β-lactamase inhibition, FC-5 fluorogenic cephalosporin assay; format: biochemical; conditions: VIM-1, subclass B1
T3 construct: made in house; host or cells: E. coli
Method: as §1

[9] = molecular target: T4, L1 (Stenotrophomonas maltophilia, UniProt P52700); assay: as above; format: biochemical; conditions: L1, subclass B3
T4 construct: made in house; host or cells: E. coli
Method: as §1

[10] = molecular target: T5, KPC-2 (Klebsiella pneumoniae, UniProt Q9F663); assay: as above; format: biochemical; conditions: KPC-2, class A
T5 construct: made in house; host or cells: E. coli
Method: as §1

[11] = molecular target: T6, AmpC (Pseudomonas aeruginosa, UniProt P24735); assay: as above; format: biochemical; conditions: class C
T6 construct: made in house; host or cells: E. coli
Method: as §1

[12] = molecular target: T7, IMP-1 (Serratia marcescens, UniProt P52699); assay: as above; format: biochemical; conditions: IMP-1, subclass B1
T7 construct: made in house; host or cells: E. coli
Method: as §1

[13] = molecular target: T8, VIM-2 (Escherichia coli, UniProt Q5U7L7); assay: as above; format: biochemical; conditions: VIM-2, subclass B1
T8 construct: made in house; host or cells: E. coli
Method: as §1

[14] = molecular target: T9, NDM-1 (Klebsiella pneumoniae, UniProt C7C422); assay: as above; format: biochemical; conditions: NDM-1, subclass B1
T9 construct: made in house; host or cells: E. coli
Method: as §1

[15] = molecular target: T10, OXA-10 (Pseudomonas aeruginosa, UniProt P14489); assay: as above; format: biochemical; conditions: for IC50: OXA-10, class D
T10 construct: made in house; host or cells: E. coli
Method: as §1

[16] = tested on: class B MBLs (IMP-1, VIM-1, VIM-2, NDM-1 and L1); design: method as in PMID 27401561; conditions: across the same range of inhibitor concentrations as vaborbactam; cited from earlier work
[17] = molecular target: T4, L1; conditions: cited from earlier work
[18] = molecular target: T2, CphA; conditions: cited from earlier work
[19] = molecular target: T6, AmpC; conditions: read-out: Cyclic Boronate (CB2) IC50; cited from earlier work
[20] = tested on: CTX-M15; design: method as in PMID 28115348; conditions: read-out: Cyclic Boronate (CB2) IC50; cited from earlier work

T10 sequence (P14489 20-266, species assumed): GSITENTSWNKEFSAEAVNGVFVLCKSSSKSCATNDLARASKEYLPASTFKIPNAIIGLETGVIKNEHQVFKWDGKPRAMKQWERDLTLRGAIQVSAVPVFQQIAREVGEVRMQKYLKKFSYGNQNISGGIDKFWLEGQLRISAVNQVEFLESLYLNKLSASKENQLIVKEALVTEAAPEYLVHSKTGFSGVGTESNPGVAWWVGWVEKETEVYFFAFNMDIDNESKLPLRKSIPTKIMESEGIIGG
T4 sequence (P52700 34-290): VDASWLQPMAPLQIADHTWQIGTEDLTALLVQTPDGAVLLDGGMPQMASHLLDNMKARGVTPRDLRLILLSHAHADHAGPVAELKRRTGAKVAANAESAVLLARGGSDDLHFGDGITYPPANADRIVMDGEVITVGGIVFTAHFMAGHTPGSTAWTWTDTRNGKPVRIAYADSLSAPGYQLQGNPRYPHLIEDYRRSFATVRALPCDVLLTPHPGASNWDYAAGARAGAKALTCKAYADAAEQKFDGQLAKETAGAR
T2 sequence (P26918 28-254): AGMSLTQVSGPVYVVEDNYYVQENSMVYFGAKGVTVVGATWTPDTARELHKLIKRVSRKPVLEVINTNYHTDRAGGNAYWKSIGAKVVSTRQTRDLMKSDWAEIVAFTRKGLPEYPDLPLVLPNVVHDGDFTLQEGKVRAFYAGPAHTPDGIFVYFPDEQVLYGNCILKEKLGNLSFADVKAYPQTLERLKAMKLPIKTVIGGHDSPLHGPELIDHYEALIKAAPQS
T6 sequence (P24735 27-397): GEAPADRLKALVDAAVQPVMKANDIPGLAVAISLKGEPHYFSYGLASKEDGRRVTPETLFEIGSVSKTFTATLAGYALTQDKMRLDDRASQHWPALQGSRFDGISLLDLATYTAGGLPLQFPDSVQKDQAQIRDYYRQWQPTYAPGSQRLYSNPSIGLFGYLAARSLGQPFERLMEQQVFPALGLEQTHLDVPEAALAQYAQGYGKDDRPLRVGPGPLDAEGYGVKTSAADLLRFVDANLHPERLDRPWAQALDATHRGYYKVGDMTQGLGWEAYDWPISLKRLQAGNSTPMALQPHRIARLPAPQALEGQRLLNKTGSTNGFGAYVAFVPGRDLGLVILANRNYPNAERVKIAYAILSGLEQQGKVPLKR
T1 sequence (Q6XEC0 23-265, looked up, species assumed): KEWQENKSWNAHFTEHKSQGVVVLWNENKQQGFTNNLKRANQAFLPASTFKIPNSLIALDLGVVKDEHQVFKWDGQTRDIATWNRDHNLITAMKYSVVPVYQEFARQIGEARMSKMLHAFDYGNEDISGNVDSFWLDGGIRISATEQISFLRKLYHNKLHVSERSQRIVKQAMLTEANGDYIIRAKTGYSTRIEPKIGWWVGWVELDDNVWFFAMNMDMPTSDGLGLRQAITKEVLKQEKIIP
T5 sequence (Q9F663 25-293, looked up, species assumed): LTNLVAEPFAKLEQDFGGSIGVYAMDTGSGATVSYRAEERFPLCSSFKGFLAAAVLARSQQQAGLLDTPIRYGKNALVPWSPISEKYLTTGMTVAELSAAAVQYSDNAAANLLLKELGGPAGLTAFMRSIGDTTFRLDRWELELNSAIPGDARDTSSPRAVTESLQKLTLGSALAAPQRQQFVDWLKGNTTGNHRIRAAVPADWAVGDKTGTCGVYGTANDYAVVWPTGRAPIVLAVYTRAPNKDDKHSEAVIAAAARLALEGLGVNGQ
T7 sequence (P52699 19-246, looked up, species assumed): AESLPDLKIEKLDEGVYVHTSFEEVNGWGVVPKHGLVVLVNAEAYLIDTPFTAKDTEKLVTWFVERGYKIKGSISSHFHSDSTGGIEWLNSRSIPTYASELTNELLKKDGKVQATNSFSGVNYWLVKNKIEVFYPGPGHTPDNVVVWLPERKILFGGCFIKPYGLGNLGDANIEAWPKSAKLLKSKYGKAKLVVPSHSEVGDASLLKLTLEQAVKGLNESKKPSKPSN
T9 sequence (C7C422 29-270, looked up, species assumed): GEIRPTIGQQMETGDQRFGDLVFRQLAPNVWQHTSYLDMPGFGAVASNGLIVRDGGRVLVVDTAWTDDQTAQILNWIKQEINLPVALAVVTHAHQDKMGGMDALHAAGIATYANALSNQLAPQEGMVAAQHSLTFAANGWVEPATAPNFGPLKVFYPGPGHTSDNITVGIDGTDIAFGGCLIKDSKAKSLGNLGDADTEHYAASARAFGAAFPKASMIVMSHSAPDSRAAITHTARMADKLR

## O=C(O)C[C@@H]1CC[C@H](NC(=O)Cc2cccs2)B(O)O1 [Vaborbactam, vaborbactam]
[1]
  Ki: 0.099 µM
[2]
  Ki: 0.029 µM
[3]
  IC50: 32 µM
[4]
  IC50: 631 µM
[5]
  Ki: 0.069 µM
[6]
  Ki: 0.053 µM
[7]
  Ki: 0.044 µM
[8]
  IC50: 398 µM
[9]
  IC50: 336 µM
[10]
  IC50: 0.09 µM
[11]
  IC50: 5 µM
[12]
  IC50: 126 µM
[13]
  IC50: 316 µM
[14]
  IC50: 631 µM
[15]; without NaHCO3
  IC50: > 400 µM
[15]; read-out: Vaborbactam IC50, 100 mM NaHCO3
  IC50: > 400 µM
[15]; read-out: inhibition of OXA-10 at the highest tested concentration
  inhibition at 400 µM: < 50%

## NC(=O)[C@@H]1CC[C@@H]2CN1C(=O)N2OS(=O)(=O)O [avibactam]
[16]
  inhibition of MBLs: does not show any inhibition

## NCc1ccc(C(=O)N[C@H]2Cc3cccc(C(=O)O)c3OB2O)cc1 [CB2]
[17]
  Cyclic Boronate (CB2) IC50: do not exhibit inhibitory activity; also recorded: Not inhibited[19]
[18]; CphA (mono Zn(II))
  inhibitory activity against B2 CphA: do not exhibit inhibitory activity
[18]; read-out: Cyclic Boronate (CB2) IC50, CphA
  IC50: > 100 µM
[19]
  IC50: 0.12 µM
[20]
  IC50: 0.013 µM
